Laboratory results as given in the NIST ThermoML archive (doi:10.1016/j.fluid.2017.12.037).

Test: xn = mol fraction of the nth substance listed
Settings: Gas, Buoyancy - hydrostatic balance with magnetic suspension - one sinker

C=C(F)C(F)(F)F [2,3,3,3-tetrafluoro-1-propene] + FCF
Settings | mass density [kg/m3]
279.8 K, 225 kPa, x1 = 0.202 | 6.518
279.81 K, 366 kPa, x1 = 0.202 | 10.881
279.82 K, 422 kPa, x1 = 0.61 | 18.046
279.82 K, 531 kPa, x1 = 0.202 | 16.362
279.99 K, 139 kPa, x1 = 0.61 | 5.52
280 K, 292 kPa, x1 = 0.61 | 12.065
289.13 K, 223 kPa, x1 = 0.202 | 6.201
289.13 K, 326 kPa, x1 = 0.202 | 9.243
289.13 K, 498 kPa, x1 = 0.202 | 14.57
289.14 K, 652 kPa, x1 = 0.202 | 19.613
289.24 K, 435 kPa, x1 = 0.61 | 17.849
289.25 K, 300 kPa, x1 = 0.61 | 11.915
289.27 K, 142 kPa, x1 = 0.61 | 5.456
289.35 K, 825 kPa, x1 = 0.062 | 21.899
289.47 K, 272 kPa, x1 = 0.062 | 6.547
289.52 K, 465 kPa, x1 = 0.062 | 11.568
298.56 K, 1030 kPa, x1 = 0.062 | 27.002
298.65 K, 448 kPa, x1 = 0.61 | 17.642
298.65 K, 795 kPa, x1 = 0.062 | 19.996
298.67 K, 524 kPa, x1 = 0.062 | 12.632
298.68 K, 146 kPa, x1 = 0.61 | 5.4
298.68 K, 314 kPa, x1 = 0.062 | 7.355
298.7 K, 309 kPa, x1 = 0.61 | 11.815
298.95 K, 208 kPa, x1 = 0.366 | 6.462
298.96 K, 416 kPa, x1 = 0.366 | 13.396
298.97 K, 629 kPa, x1 = 0.366 | 21.025
299.11 K, 197 kPa, x1 = 0.202 | 5.25
299.11 K, 460 kPa, x1 = 0.202 | 12.798
299.11 K, 653 kPa, x1 = 0.202 | 18.744
299.11 K, 817 kPa, x1 = 0.202 | 24.131
308.21 K, 285 kPa, x1 = 0.062 | 6.408
308.21 K, 465 kPa, x1 = 0.062 | 10.702
308.21 K, 692 kPa, x1 = 0.062 | 16.408
308.21 K, 839 kPa, x1 = 0.062 | 20.316
308.21 K, 1102 kPa, x1 = 0.062 | 27.74
308.23 K, 1301 kPa, x1 = 0.062 | 33.802
308.29 K, 170 kPa, x1 = 0.61 | 6.134
308.3 K, 340 kPa, x1 = 0.61 | 12.602
308.32 K, 577 kPa, x1 = 0.61 | 22.346
308.33 K, 769 kPa, x1 = 0.61 | 30.942
308.47 K, 201 kPa, x1 = 0.366 | 6.029
308.47 K, 387 kPa, x1 = 0.366 | 11.937
308.47 K, 560 kPa, x1 = 0.366 | 17.726
308.47 K, 794 kPa, x1 = 0.366 | 26.137
308.69 K, 226 kPa, x1 = 0.202 | 5.868
308.69 K, 390 kPa, x1 = 0.202 | 10.341
308.69 K, 569 kPa, x1 = 0.202 | 15.462
308.7 K, 735 kPa, x1 = 0.202 | 20.457
308.7 K, 1050 kPa, x1 = 0.202 | 30.682
317.75 K, 163 kPa, x1 = 0.062 | 3.497
317.75 K, 406 kPa, x1 = 0.062 | 8.95
317.75 K, 648 kPa, x1 = 0.062 | 14.699
317.75 K, 910 kPa, x1 = 0.062 | 21.311
317.75 K, 1331 kPa, x1 = 0.062 | 32.968
317.78 K, 1625 kPa, x1 = 0.062 | 42.032
317.89 K, 139 kPa, x1 = 0.61 | 4.816
317.89 K, 309 kPa, x1 = 0.61 | 11.009
317.9 K, 527 kPa, x1 = 0.61 | 19.436
317.92 K, 735 kPa, x1 = 0.61 | 28.033
317.92 K, 929 kPa, x1 = 0.61 | 36.73
318.29 K, 219 kPa, x1 = 0.202 | 5.48
318.29 K, 398 kPa, x1 = 0.202 | 10.192
318.29 K, 586 kPa, x1 = 0.202 | 15.349
318.29 K, 790 kPa, x1 = 0.202 | 21.254
318.29 K, 1058 kPa, x1 = 0.202 | 29.49
318.3 K, 1336 kPa, x1 = 0.202 | 38.819
318.53 K, 165 kPa, x1 = 0.366 | 4.746
318.53 K, 351 kPa, x1 = 0.366 | 10.354
318.53 K, 563 kPa, x1 = 0.366 | 17.123
318.53 K, 766 kPa, x1 = 0.366 | 23.969
318.53 K, 1009 kPa, x1 = 0.366 | 32.745
327.52 K, 157 kPa, x1 = 0.61 | 5.289
327.52 K, 329 kPa, x1 = 0.61 | 11.37
327.52 K, 536 kPa, x1 = 0.61 | 19.029
327.53 K, 930 kPa, x1 = 0.61 | 35.068
327.54 K, 1122 kPa, x1 = 0.61 | 43.758
